Experimental findings from patent publication US7906522B2, “2-aminoquinazoline derivatives” (Kyowa Hakko Kirin Co., Ltd, priority 2005, dated 2011) are described below.

SMILES strings stand for the structures. A value given as a limit tells only on which side of the number the result lay.

In this assay the target is T1, Activated human p38α (Homo sapiens, UniProt Q16539).
T1 construct: purchased Upstate Biotechnology Inc. 14-251
T1 sequence (Q16539 whole entry): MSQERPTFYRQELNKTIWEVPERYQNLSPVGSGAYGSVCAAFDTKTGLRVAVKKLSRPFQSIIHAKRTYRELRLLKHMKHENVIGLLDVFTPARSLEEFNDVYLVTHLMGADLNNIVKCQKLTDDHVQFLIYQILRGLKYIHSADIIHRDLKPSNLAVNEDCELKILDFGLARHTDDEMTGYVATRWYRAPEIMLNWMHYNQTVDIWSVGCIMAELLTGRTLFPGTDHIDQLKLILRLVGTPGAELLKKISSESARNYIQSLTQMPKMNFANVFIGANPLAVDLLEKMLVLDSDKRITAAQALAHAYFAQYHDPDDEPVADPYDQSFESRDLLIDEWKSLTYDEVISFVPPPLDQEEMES
The experiment in a line: p38MAP kinase inhibition test. It is filed as biochemical. Particulars: at a concentration of 1 μmol/L; substrate myelin basic protein, ATP 20 μmol/L, [γ-32P]ATP; read-out: enzyme inhibitory activity. The procedure:
p38MAP Kinase Inhibition Test
Activated human p38α was purchased from Upstate Biotechnology Inc. (Catalog No. 14-251). P38MAP kinase inhibitory activity was measured by the procedure described below with reference to the method by Whitmarsh A. J. and Davis R. J. [Methods in Enzymology (Method. Enzymol.), vol. 332, p. 319-336 (2001)]. As the substrate to be phosphorylated, a myelin basic protein (Catalog No. 133-13493, Wako Pure Chemical Industries, Ltd.) (20 μg/assay) was used. The reaction was carried out in a solution containing 3-[N-Morpholino]propanesulfonic acid (MOPS) (20 mmol/L, pH 7.2), β-glycerophosphoric acid (Sigma Corp.) (25 mmol/L), ethylenebis(oxyethylenenitrilo)tetraacetic acid (EGTA) (1 mmol/L), […] (Sigma-Aldrich Corp.) (1 mmol/L), dithiothreitol (DTT, Wako Pure Chemical Industries, Ltd.) (1 mmol/L), adenosine 5′-triphosphate (ATP, Sigma Corp.) (20 μmol/L), and MgCl2 (18.75 mmol/L) (total 40 μL/assay). The reaction was started by adding human p38α and [γ-^32P]ATP (1 μCi/assay), and incubation was performed at 30° C. for 15 minutes. The reaction was terminated by adding 4.5% v/v phosphoric acid (10 μL/well). Then, 45 μL of the reaction mixture was adsorbed onto phosphocellulose paper (p81 paper, Code No. 3698023, Whatman International, Maidstone, UK). The phosphocellulose paper was washed with 0.75% v/v phosphoric acid. Then, the radioactivity of the phosphorylated myelin basic protein ([^32P]) remaining on the phosphocellulose paper was measured with a scintillation counter (TRI-CARB2700TR, PerkinElmer, Boston, Mass., USA) using program No. 27 (data mode: cpm, measurement time: 1 min, Background substract: none, energy range measured: LL 0.0-UL 2000) or a scintillation counter (LS6500, BeckmanCoulter, Fullerton, Calif., USA) using program No. 17 (data mode: cpm, measurement time: 1 min, Background substract: none, energy range measured: high). The test compound was dissolved in DMSO before addition.
Regarding `CC(C)Nc1ncc2cc(-c3ccccc3Cl)c(-c3ccc(C(=O)O)cc3)cc2n1` [Compound 41, 7-(4-Carboxyphenyl)-6-(2-chlorophenyl)-2-isopropylaminoquinazoline], the inhibition at 1 µM is at least 50%.
Regarding `CC(C)Nc1ncc2cc(-c3ccccc3Cl)c(-c3cccc(C(=O)O)c3)cc2n1` [Compound 42, 7-(3-Carboxyphenyl)-6-(2-chlorophenyl)-2-isopropylaminoquinazoline], the inhibition at 1 µM is at least 50%.
Regarding `CC(C)Nc1ncc2cc(-c3ccccc3Cl)c(-c3cccc(Cl)c3)cc2n1` [Compound 43, 6-(2-Chlorophenyl)-7-(3-chlorophenyl)-2-isopropylaminoquinazoline], the inhibition at 1 µM is at least 50%.
Take `COc1cc2nc(NC(C)C)ncc2cc1-c1ccccc1` [Compound 44, 2-Isopropylamino-7-methoxy-6-phenylquinazoline]: the inhibition at 1 µM is at least 50%.
On to `COc1cc2nc(NC(C)C)ncc2cc1-c1ccc(O)cc1` [Compound 47, 6-(4-Hydroxyphenyl)-2-isopropylamino-7-methoxyquinazoline], for which the inhibition at 1 µM was at least 50%.
With `COc1cc2nc(NC(C)C)ncc2cc1-c1cccc(N)c1` [Compound 50, 6-(3-Aminophenyl)-2-isopropylamino-7-methoxyquinazoline], the inhibition at 1 µM is at least 50%.
For `COc1cc2nc(NC(C)C)ncc2cc1-c1cccc(NC(C)=O)c1` [Compound 52, 6-[(3-Acetylamino)phenyl]-2-isopropylamino-7-methoxyquinazoline], the inhibition at 1 µM is at least 50%.
To `COc1cc2nc(NC(C)C)ncc2cc1-c1cccc(NC(=O)c2ccnc(N3CCOCC3)c2)c1` [Compound 53, 2-Isopropylamino-7-methoxy-6-{3-[(2-morpholinopyridin-4-yl)carbonylamino]phenyl}quinazoline] belongs at least 50%; to `COc1cc2nc(NC(C)C)ncc2cc1-c1cccc(NC(=O)c2cccc(N(C)C)c2)c1` [Compound 54, 2-Isopropylamino-7-methoxy-6-{3-[(3-dimethylaminophenyl)carbonylamino]phenyl}quinazoline], at least 50%.
As for `COc1cc2nc(NC(C)C)ncc2cc1-c1ccccc1[N+](=O)[O-]` [Compound 55, 2-Isopropylamino-7-methoxy-6-(2-nitrophenyl)quinazoline], the inhibition at 1 µM was at least 50%.
On to `COc1cc2nc(NC(C)C)ncc2cc1-c1ccccc1NC(C)=O` [Compound 56, 6-[2-(Acetylamino)phenyl]-2-isopropylamino-7-methoxyquinazoline], for which the inhibition at 1 µM was at least 50%.
For the compound `COc1cc2nc(NC(C)C)ncc2cc1-c1ccccc1C=O` [Compound 57, 6-(2-Formylphenyl)-2-isopropylamino-7-methoxyquinazoline], the inhibition at 1 µM was at least 50%.
As to `COc1cc2nc(NC(C)C)ncc2cc1-c1ccccc1C=NO` [Compound 58], the inhibition at 1 µM is at least 50%.
Take `CON=Cc1ccccc1-c1cc2cnc(NC(C)C)nc2cc1OC` [Compound 59, 2-Isopropylamino-7-methoxy-6-[2-(methoxyimino)phenyl]quinazoline]: the inhibition at 1 µM is at least 50%.
Consider `COc1c(-c2ccccc2Cl)cc2cnc(NC(C)C)nc2c1Br` [Compound 60, 8-Bromo-6-(2-chlorophenyl)-2-isopropylamino-7-methoxyquinazoline], for which the inhibition at 1 µM is at least 50%.
As to `COC(=O)c1c(OC)c(-c2ccccc2Cl)cc2cnc(NC(C)C)nc12` [Compound 61, 6-(2-Chlorophenyl)-2-isopropylamino-7-methoxy-8-(methoxycarbonyl)quinazoline], the inhibition at 1 µM was at least 50%.
For `CCCOC(=O)c1c(OC)c(-c2ccccc2Cl)cc2cnc(NC(C)C)nc12` [Compound 62, 6-(2-Chlorophenyl)-2-isopropylamino-7-methoxy-8-(propoxycarbonyl)quinazoline], the inhibition at 1 µM is at least 50%.
With `CCCOC(=O)c1c(O)c(-c2ccccc2Cl)cc2cnc(NC(C)C)nc12` [Compound 63, 6-(2-Chlorophenyl)-7-hydroxy-2-isopropylamino-8-(propoxycarbonyl)quinazoline], the inhibition at 1 µM is at least 50%.
On to `COc1c(-c2ccccc2Cl)cc2cnc(NC(C)C)nc2c1C(=O)N1CCOCC1` [Compound 66, 6-(2-Chlorophenyl)-2-isopropylamino-8-(morpholinocarbonyl)-7-methoxyquinazoline], for which the inhibition at 1 µM is at least 50%.
To `COc1c(-c2ccccc2Cl)cc2cnc(NC(C)C)nc2c1C(=O)N1CCCCC1` [Compound 67, 6-(2-Chlorophenyl)-2-isopropylamino-7-methoxy-8-(piperidinocarbonyl)quinazoline] belongs at least 50%; to `CCN(CC)C(=O)c1c(OC)c(-c2ccccc2Cl)cc2cnc(NC(C)C)nc12` [Compound 68, 6-(2-Chlorophenyl)-8-(N,N-diethylaminocarbonyl)-2-isopropylamino-7-methoxyquinazoline], at least 50%; to `CCCNC(=O)c1c(OC)c(-c2ccccc2Cl)cc2cnc(NC(C)C)nc12` [Compound 69, 6-(2-Chlorophenyl)-2-isopropylamino-7-methoxy-8-(N-propylaminocarbonyl)quinazoline], at least 50%.
Turning to `COc1c(-c2ccccc2Cl)cc2cnc(NC(C)C)nc2c1C(=O)N(C)OC` [Compound 71, 6-(2-Chlorophenyl)-2-isopropylamino-7-methoxy-8-(N-methoxy-N-methylaminocarbonyl)quinazoline], the inhibition at 1 µM is at least 50%.
The value for `CON(C)C(=O)c1c(O)c(-c2ccccc2Cl)cc2cnc(NC(C)C)nc12` [Compound 72, 6-(2-Chlorophenyl)-7-hydroxy-2-isopropylamino-8-(N-methoxy-N-methylaminocarbonyl)quinazoline] was at least 50%; that for `CCOC(=O)/C=C/c1c(OC)c(-c2ccccc2Cl)cc2cnc(NC(C)C)nc12` [Compound 73, 6-(2-Chlorophenyl)-8-[(E)-2-(ethoxycarbonyl)ethenyl]-7-methoxy-2-(isopropylamino)quinazoline] was at least 50%.
Take `COc1c(-c2ccccc2Cl)cc2cnc(NC(C)C)nc2c1/C=C/C(=O)O` [Compound 74, 8-[(E)-2-carboxyethenyl]-6-(2-chlorophenyl)-7-methoxy-2-(isopropylamino)quinazoline]: the inhibition at 1 µM is at least 50%.
With `C=Cc1c(OC)c(-c2ccccc2Cl)cc2cnc(NC(C)C)nc12` [Compound 76, 6-(2-Chlorophenyl)-2-isopropylamino-7-methoxy-8-vinylquinazoline], the inhibition at 1 µM is at least 50%.
`COc1c(-c2ccccc2Cl)cc2cnc(NC(C)C)nc2c1C(C)=O` [Compound 77, 8-Acetyl-6-(2-chlorophenyl)-2-isopropylamino-7-methoxyquinazoline]: the inhibition at 1 µM is at least 50%.
Consider `CC(=O)c1c(O)c(-c2ccccc2Cl)cc2cnc(NC(C)C)nc12` [Compound 78, 8-Acetyl-6-(2-chlorophenyl)-7-hydroxy-2-(isopropylamino)quinazoline], for which the inhibition at 1 µM was at least 50%.
As to `CCOC(=O)COc1c(-c2ccccc2Cl)cc2cnc(NC(C)C)nc2c1C(C)=O` [Compound 79, 8-Acetyl-6-(2-chlorophenyl)-7-(ethoxycarbonylmethyloxy)-2-(isopropylamino)quinazoline], the inhibition at 1 µM is at least 50%.
The value for `CC(=O)c1c(OCC(=O)O)c(-c2ccccc2Cl)cc2cnc(NC(C)C)nc12` [Compound 80, 8-Acetyl-7-(carboxymethyloxy)-6-(2-chlorophenyl)-2-(isopropylamino)quinazoline] was at least 50%; that for `CC(C)Nc1ncc2cc(-c3ccccc3Cl)c(OCC(C)(C)O)c(C(C)(C)O)c2n1` [Compound 81, 6-(2-Chlorophenyl)-8-(1-hydroxy-1-methylethyl)-7-(2-hydroxy-2-methylpropyloxy)-2-(isopropylamino)quinazoline] was at least 50%; that for `COc1c(-c2ccc(F)cc2F)cc2cnc(NC(C)C)nc2c1Br` [Compound 82, 8-Bromo-6-(2,4-difluorophenyl)-2-isopropylamino-7-methoxyquinazoline] was at least 50%.
With `CC(C)Nc1ncc2cc(-c3ccc(F)cc3F)c(O)c(-c3ccc(F)cc3)c2n1` [Compound 84, 6-(2,4-Difluorophenyl)-8-(4-fluorophenyl)-2-isopropylamino-7-hydroxyquinazoline], the inhibition at 1 µM is at least 50%.
To `COc1c(-c2ccccc2Cl)cc2cnc(NC(C)C)nc2c1-c1ccccn1` [Compound 86, 6-(2-Chlorophenyl)-2-isopropylamino-7-methoxy-8-(2-pyridyl)quinazoline] belongs at least 50%.
